35 molecules from patent US20240417359A1, “PRECURSORS OF PHENOLIC FRAGRANT COMPOUNDS” (GIVAUDAN SA, priority 2021, published 2024) can be followed below.

Experiment [1] in a line: Washtest with liquid detergent and sensory evaluation of fabric by expert panel. Particulars: Table 3; for odour intensity, 1 day: dry fabric 1 day; for odour intensity, 1 day / odour intensity, 4 days / odour intensity, wet: scale 0 to 5; for odour intensity, 4 days: dry fabric 4 days; for odour intensity, wet / odour on dry fabric: heavy duty liquid detergent washtest; for odour intensity, wet: wet fabric. Here is the method:
The wet and line-dried fabric (1 and 4 days) was assessed by a panel of 4-6 experts with regard to odour intensity and quality. The odour intensity was recorded on an intensity scale of 0 (odourless) to 5 (extremely strong).
The odour intensity was recorded on an intensity scale of 0 (odorless) to 5 (extremely strong).
Heavy duty liquid detergent samples were prepared and used in washtests and subsequent sensory evaluation of the washed and dried fabric as described in Example 60a and c. The odour intensity was recorded on an intensity scale of 0 (odourless) to 5 (extremely strong).

Experiment [2] is described as follows: Odour description on paper blotter. As to conditions: 1% solution in EtOH on paper blotter, 24 h.

Consider `C=CCc1ccc(OC(CC=C)CCCCCCCCC)c(OC)c1` (stereo not shown) [4-allyl-2-methoxy-1-(tridec-1-en-4-yloxy)benzene], for which, in experiment [1], the “odour intensity, 1 day” value is on record as 2.1; the “odour intensity, 4 days” value stood at 2.7; the “odour intensity, wet” value is reported as 2.1.

As to `C=CCC(CC/C=C\CC)Oc1ccc(C=O)cc1OCC` (stereo not shown) [Example 12, (Z)-4-(deca-1,7-dien-4-yloxy)-3-ethoxybenzaldehyde], in experiment [2], the Odour description result is given as “powdery (vanilla)”. Further, in experiment [1], the “odour intensity, 1 day” value amounted to 3.0; the “odour intensity, 4 days” value is recorded as 3.7; the “odour intensity, wet” value stood at 0.4.

Take `C=CCC(CCCCCCCCCC)Oc1ccc(C=O)cc1OC` (stereo not shown) [Example 38, 3-methoxy-4-(tetradec-1-en-4-yloxy)benzaldehyde]: the Odour description result in experiment [2] was “powdery, vanilla, creamy, aldehydic, mandarin, madeleine”. In addition, in experiment [1], the “odour intensity, 1 day” value was 3.0; the “odour intensity, 4 days” value is recorded as 3.2; the “odour on dry fabric” value was “madeleine”; the “odour intensity, wet” value was found to be 2.2.

Consider `CCCCCCC(C/C=C\CCCCCCCC(=O)OC)Oc1ccccc1OC` (stereo not shown) [Example 45, methyl (Z)-12-(2-methoxyphenoxy)octadec-9-enoate], for which the Odour description entry in experiment [2] was “phenolic, medicinal, guaiacol, vanilla absolute, peru balsam”.

Consider `CCOc1cc(C=O)ccc1OCC/C=C(\C)c1ccccc1` [Example 48, (E)-3-ethoxy-4-((4-phenylpent-3-en-1-yl)oxy)benzaldehyde], for which, in experiment [2], the Odour description result was “sweet, powdery, vanilla, ice cream”.

`CCOc1cc(C=O)ccc1OCCC=C(C)c1ccc(OC)cc1` [Example 49, 3-ethoxy-4-((4-(4-methoxyphenyl)pent-3-en-1-yl)oxy)benzaldehyde]: the Odour description entry in experiment [2] is given as “sweet, powdery, vanilla, ice cream, soft anisic, heliotropine, anethiol”.

In the case of `CCOc1cc(C=O)ccc1OCCC=C(C)Cc1ccccc1` [Example 50, 3-ethoxy-4-((4-methyl-5-phenylpent-3-en-1-yl)oxy)benzaldehyde], in experiment [2], the Odour description entry is given as “powdery, vanilla, ice cream”.

Take `CCOc1cc(C=O)ccc1OCC/C=C(\C)c1ccc2ccccc2c1` [Example 51, (E)-3-ethoxy-4-((4-(naphthalen-2-yl)pent-3-en-1-yl)oxy)benzaldehyde]: in experiment [2], the Odour description result was “powdery, vanilla, ice cream, floral, neroli, orange flower, baby cologne, madeleine, fougassette”.

With `CC(=O)CCc1ccc(OCCC=C(C)CCc2ccccc2)cc1` [Example 52, 4-(4-((4-methyl-6-phenylhex-3-en-1-yl)oxy)phenyl)butan-2-one], the Odour description result in experiment [2] is recorded as “sweet, crystal sugar, fruity, raspberry”. Besides, in experiment [1], the “odour intensity, 1 day” value came out at 2.9; the “odour intensity, 4 days” value stood at 3.3; the “odour on dry fabric” value is reported as “raspberry, sweet”; the “odour intensity, wet” value is listed as 1.6.

Consider `COc1ccc(C(C)=CCCOc2ccc(CCC(C)=O)cc2)cc1` [Example 53, 4-(4-((4-(4-methoxyphenyl)pent-3-en-1-yl)oxy)phenyl)butan-2-one], for which the Odour description entry in experiment [2] is on record as “sweet powdery, anisic aldehyde, fruity, raspberry ketone”.

Turning to `CCOc1cc(C=O)ccc1OCCC=C(C)CCc1ccc(OC)cc1` [Example 54, 3-ethoxy-4-((6-(4-methoxyphenyl)-4-methylhex-3-en-1-yl)oxy)benzaldehyde], in experiment [2], the Odour description entry is “powdery, vanilla”.

In the case of `COC(=O)c1ccccc1OCCC=C(C)CCc1ccccc1` [Example 56, methyl 2-((4-methyl-6-phenylhex-3-en-1-yl)oxy)benzoate], the Odour description entry in experiment [2] is “wintergreen, salicylate, slightly powdery, vanilla”.

As to `CCC(=O)c1ccccc1OCCC=C(C)CCc1ccccc1` [Example 57, 1-(2-((4-methyl-6-phenylhex-3-en-1-yl)oxy)phenyl)propan-1-one], the Odour description entry in experiment [2] is reported as “wintergreen, salicylate, slightly powdery, vanilla”.

In the case of `CCOc1cc(C=O)ccc1OCCC=C(C)CCCc1ccccc1` [Example 58, 3-ethoxy-4-((4-methyl-7-phenylhept-3-en-1-yl)oxy)benzaldehyde], the Odour description entry in experiment [2] is reported as “powdery, vanilla, creamy, chocolate”.

With `CC(=O)CCc1ccc(OCCC=C(C)CCCc2ccccc2)cc1` [Example 59, 4-(4-((4-methyl-7-phenylhept-3-en-1-yl)oxy)phenyl)butan-2-one], the Odour description result in experiment [2] is reported as “powdery fruity, raspberry”.

As to `CCOc1cc(C=O)ccc1OCCC=C(C)CCC=C(C)C` [Example 60, 4-((4,8-dimethylnona-3,7-dien-1-yl)oxy)-3-ethoxybenzaldehyde], in experiment [2], the Odour description result is given as “gourmand (vanilla, rhum, vanilla bean) sweet (vanilla)”.

Turning to `C=CCc1ccc(OCCC=C(C)CCC=C(C)C)c(OC)c1` [Example 61, 4-allyl-1-((4,8-dimethylnona-3,7-dien-1-yl)oxy)-2-methoxybenzene], the Odour description result in experiment [2] is on record as “spicy”.

As for `COC(=O)c1c(C)cc(OCC/C=C(\C)CCC=C(C)C)c(C)c1O` [Example 62, methyl (E)-4-((4,8-dimethylnona-3,7-dien-1-yl)oxy)-2-hydroxy-3,6-dimethylbenzoate], in experiment [2], the Odour description result is recorded as “powdery (mossy)”.

For the molecule `CCOc1cc(C=O)ccc1OC(C)C(C)/C=C/C1CC=C(C)C1(C)C` (stereo not shown) [Example 63, (E)-3-ethoxy-4-((3-methyl-5-(2,2,3-trimethylcyclopent-3-en-1-yl)pent-4-en-2-yl)oxy)benzaldehyde], the Odour description result in experiment [2] is “woody, sandalwoody, hay”.

As for `CCCCC/C=C\CCOc1ccc(C=O)cc1OCC` [Example 64, (Z)-3-ethoxy-4-(non-3-en-1-yloxy)benzaldehyde], the Odour description entry in experiment [2] is recorded as “vanilla (powdery, spicy, creamy)”.

With `CCOc1cc(C)ccc1OCCC=C(C)CCC=C(C)CCC=C(C)C` [Example 65, 2-ethoxy-4-methyl-1-((4,8,12-trimethyltrideca-3,7,11-trien-1-yl)oxy)benzene], in experiment [2], the Odour description entry was “phenolic (medicinal, ultravanil, balsamic vanilla bean, cough syrup)”.

On to `COC(=O)c1c(C)cc(OCCC=C(C)CCC=C(C)CCC=C(C)C)c(C)c1O` [Example 66, methyl 2-hydroxy-3,6-dimethyl-4-((4,8,12-trimethyltrideca-3,7,11-trien-1-yl)oxy)benzoate], for which the Odour description result in experiment [2] is “powdery mossy (evernyl)”.

`C=CCC(Oc1ccc(C=O)cc1OCC)c1ccccc1` (stereo not shown) [Example 68, 3-ethoxy-4-((1-phenylbut-3-en-1-yl)oxy)benzaldehyde]: the Odour description result in experiment [2] is recorded as “powdery (vanilla), green”.

In the case of `C=CCC(CC/C=C\CC)Oc1cc(C)c(C(=O)OC)c(O)c1C` (stereo not shown) [Example 69, methyl (Z)-4-(deca-1,7-dien-4-yloxy)-2-hydroxy-3,6-dimethylbenzoate], in experiment [2], the Odour description entry was “powdery green marine (evernyl)”. Also, in experiment [1], the “odour intensity, 1 day” value came out at 1.9; the “odour intensity, 4 days” value is on record as 2.5; the “odour on dry fabric” value is recorded as “mossy, woody”; the “odour intensity, wet” value amounted to 0.5.

For the molecule `CC/C=C\CCCC/C=C/CCOc1ccc(C=O)cc1OCC` [Example 76, 4-(((3E,9Z)-dodeca-3,9-dien-1-yl)oxy)-3-ethoxybenzaldehyde], in experiment [2], the Odour description entry is listed as “green, melon, powdery, vanilla”.

Consider `CC/C=C\CCCC/C=C/CCOc1cc(C)c(C(=O)OC)c(O)c1C` [Example 77, methyl 4-(((3E,9Z)-dodeca-3,9-dien-1-yl)oxy)-2-hydroxy-3,6-dimethylbenzoate], for which, in experiment [2], the Odour description result is “powdery, oakmoss”.

`C=CCC(CCC=CCC)Oc1ccc(C=O)cc1OCC` (stereo not shown) [Example 78, 4-(deca-1,7-dien-4-yloxy)-3-ethoxybenzaldehyde]: in experiment [2], the Odour description result is given as “powdery, vanilla”.

For `CCOc1cc(C=O)ccc1OCCC=C(C)CCc1ccc2c(c1)OCO2` [Example 79, 4-((6-(benzo[d][1,3]dioxol-5-yl)-4-methylhex-3-en-1-yl)oxy)-3-ethoxybenzaldehyde], the Odour description entry in experiment [2] is “sweet powdery, creamy, vanilla, vanitrope”.

Take `CC(=O)CCc1ccc(OCCC=C(C)CCc2ccc3c(c2)OCO3)cc1` [Example 80, 4-(4-((6-(benzo[d][1,3]dioxol-5-yl)-4-methylhex-3-en-1-yl)oxy)phenyl)butan-2-one]: in experiment [2], the Odour description result was “fruity, raspberry, grenadine, berryflor, fresh, transparent”.

`CC(=O)CCc1ccc(OCCC=C(C)CCC2=C(C)CCCC2(C)C)cc1` [Example 82, 4-(4-((4-methyl-6-(2,6,6-trimethylcyclohex-1-en-1-yl)hex-3-en-1-yl)oxy)phenyl)butan-2-one]: the Odour description result in experiment [2] was “fruity, sweet, powdery, raspberry ketone”.

For the molecule `CCOc1cc(C=O)ccc1OCCC=CCCc1ccccc1` [Example 85, 3-ethoxy-4-((6-phenylhex-3-en-1-yl)oxy)benzaldehyde], in experiment [2], the Odour description entry was “powdery, vanilla, creamy, balsamic, cinnamic”.

As to `CCOc1cc(C=O)ccc1OCCC=CCCc1ccc(CC(C)C)cc1` [Example 86, 3-ethoxy-4-((6-(4-isobutylphenyl)hex-3-en-1-yl)oxy)benzaldehyde], in experiment [2], the Odour description entry is “powdery, vanilla, creamy, floral, muguet”.

Regarding `CCOc1cc(C=O)ccc1OCCC=C(C)C1CCCC1` [Example 88, 4-((4-cyclopentylpent-3-en-1-yl)oxy)-3-ethoxybenzaldehyde], the Odour description entry in experiment [2] is “powdery, creamy, vanilla”.

For `CCCCCCC(C)=CCCOc1ccc(C=O)cc1OCC` [Example 89, 3-ethoxy-4-((4-methyldec-3-en-1-yl)oxy)benzaldehyde], the Odour description result in experiment [2] is reported as “powdery, vanilla, creamy”.

As for `C=CCC(CCCCCCCCC)Oc1ccc(C=O)cc1OCC` (stereo not shown) [Example 91, 3-ethoxy-4-(tridec-1-en-4-yloxy)benzaldehyde], in experiment [2], the Odour description result is “powdery, vanilla, aldehydic, fruity, mandarin”.
